Molecules are shown by their SMILES. In brackets after ≈: the same amount, converted by molar mass.

For the series the following is noted: buffer; pH 7.4; 200.0 µM.
Compound `O=[N+]([O-])c1ccc(CN2CCN(c3ncccn3)CC2)cc1` displayed a kinetic solubility of 10.1 µg/mL (≈ 33.7 µM).
As to `O=[N+]([O-])c1ccc(S(=O)(=O)Nc2ncccn2)cc1`, the solubility (kinetic) is over 42 µg/mL.
`CCCOc1ccc(C(=O)Nc2cccnc2)cc1` came in with a kinetic solubility of 36 µg/mL (≈ 140 µM).
`C[C@H](NC(=O)c1ccco1)C(=O)N1CCCC1` gave a kinetic solubility of over 35.4 µg/mL.
`CC(=O)c1c(C)[nH]c(C(=O)N2CC(C)CC(C)C2)c1C` (centres undefined): the kinetic solubility was over 41.5 µg/mL.
For the compound `N#Cc1c(-c2ccc(Cl)cc2)ccnc1N1CCOCC1`, the solubility (kinetic) is 3 µg/mL (≈ 10 µM).
With `NS(=O)(=O)c1ccc(CCNC(=O)CN2CCN(S(=O)(=O)c3ccccc3F)CC2)cc1`, the solubility (kinetic) was over 72.7 µg/mL.
`Cc1ccc(CNC(=O)COC(=O)C2CC2)cc1` returned a solubility (kinetic) of over 37.1 µg/mL.
The same measure for `Cc1cc(C)c(OCCCON2C(=O)CCC2=O)c(Br)c1`: over 53.4 µg/mL; for `CC(=O)c1cccc(N=Cc2c(O)c3ccccc3oc2=O)c1`: 11.2 µg/mL (≈ 36.4 µM); for `CN(Cc1ccccc1)C(=S)NC(=O)c1ccccc1`: 7.5 µg/mL (≈ 26.4 µM).
With `COC(=O)c1ccc(COc2cc([N+](=O)[O-])cc3cccnc23)o1`, the kinetic solubility came out at 3.3 µg/mL (≈ 10.1 µM).
`Cc1cc(C(=O)OCC(N)=O)c(C)n1-c1ccccc1` had a solubility (kinetic) of 40.1 µg/mL (≈ 147 µM).
In turn, `O=C(NNC(=S)NC(=O)c1ccc(F)cc1)c1ccncc1` yielded a kinetic solubility of over 47.7 µg/mL.
On to `Cc1cc(C)c(OCCNCc2ccccc2)c(C)c1.O=C(O)C(=O)O`, for which the kinetic solubility was 42.5 µg/mL.
In turn, `NS(=O)(=O)c1ccc(NC(=O)CN2CCc3ccccc32)cc1` registered a solubility (kinetic) of 23.6 µg/mL (≈ 71.2 µM).
As for `CC1CC2(CCCC2)N(C(=O)N(C)C)c2ccc(F)cc21` (centres undefined), the kinetic solubility amounted to 10.5 µg/mL (≈ 36.2 µM).
The same measure for `O=C1c2ccccc2NC(c2ccc(F)cc2)N1Cc1ccccc1` (centres undefined): 1.4 µg/mL (≈ 4.21 µM); for `COCCCNC(=S)Nc1cc(C)c(C)cc1C`: over 40 µg/mL.
`Cc1ccc(/C=C/C(=O)OCC(=O)c2ccc3c(c2)NC(=O)CO3)o1`: the solubility (kinetic) stood at 17.8 µg/mL (≈ 52.2 µM).
The figure for `CN(C(=O)CSc1nccc(=O)[nH]1)C1CCCCC1` is over 42.2 µg/mL; for `Cc1ccc(Cl)cc1NC(=S)NCCCSC1CCCCC1` it is 2.5 µg/mL (≈ 7 µM).
On to `O=c1ccc2cc(S(=O)(=O)NCCCc3ccccc3)ccc2[nH]1`, for which the solubility (kinetic) is 1 µg/mL (≈ 2.92 µM).
The same measure for `Cc1ccc2[nH]c3c(NCc4ccccc4)ncnc3c2c1`: 4.4 µg/mL (≈ 15.3 µM); for `COc1ccc2c(CC(=O)Nc3nccs3)coc2c1`: 7 µg/mL (≈ 24.3 µM).
Regarding `COc1ccccc1/C=C/C(=O)OCC(=O)NC1CCS(=O)(=O)C1` (centres undefined), the kinetic solubility was over 53 µg/mL.
In turn, `O=c1c2c3c(sc2nc2n1CCC2)CCCC3` showed a solubility (kinetic) of 33.8 µg/mL (≈ 137 µM).
Turning to `CCC(C)NC(=O)C1c2ccccc2C(=O)N1Cc1ccccc1` (centres undefined), the solubility (kinetic) was found to be 38.4 µg/mL (≈ 119 µM).
Compound `O=C(CCc1ccccc1)NC1C2CC3CC(C2)CC1C3` (centres undefined) registered a solubility (kinetic) of 34.6 µg/mL (≈ 122 µM).
`CCn1cc(C(=O)OC)c(=O)c2ccc(C)nc21` had a solubility (kinetic) of 36.4 µg/mL (≈ 148 µM).
With `Cc1ccc2cccc(OCc3ccccc3)c2n1`, the solubility (kinetic) stood at 20.8 µg/mL (≈ 83.4 µM).
In turn, `FC(F)(F)c1ccc(CSc2ccccn2)cc1` yielded a solubility (kinetic) of 1.2 µg/mL (≈ 4.46 µM).
The same measure for `Cc1ccc(NC(=O)CCn2c(=S)oc3ccccc32)cc1F`: under 0.4 µg/mL; for `COc1ccc([N+](=O)[O-])cc1NS(=O)(=O)c1cccc(C(=O)NCCCN2CCCC2=O)c1`: over 71.5 µg/mL; for `COc1ccc(/C=C/c2c([N+](=O)[O-])c(=O)n(C)c(=O)n2C)cc1`: 3.4 µg/mL (≈ 10.7 µM).
`CC(C)[C@H](NC(=O)c1ccco1)C(=O)OCC(=O)c1ccc(Br)s1` displayed a kinetic solubility of over 62.1 µg/mL.
Compound `NC(=O)c1ccccc1OCC(=O)Nc1ccc2c(c1)CCC2` gave a kinetic solubility of 9.5 µg/mL (≈ 30.6 µM).
The figure for `CC(C)(C)Sc1ccc([N+](=O)[O-])cc1C(=O)Nc1ccncc1` is over 49.7 µg/mL; for `COCCN(C(=S)Nc1ccc(C)cc1C)C(C)c1cccs1` (centres undefined) it is 7.7 µg/mL (≈ 22.1 µM); for `COCc1c(CCl)cnc(C)c1O` it is over 30.2 µg/mL.
In the case of `Cc1ccccc1OCCn1ccnc1`, the solubility (kinetic) worked out at 24.5 µg/mL (≈ 121 µM).
The figure for `CC(=O)Nc1cc(C)c2nc(NC(C)=O)sc2c1` is 25.7 µg/mL (≈ 97.6 µM).
In turn, `CCCCc1ccc(NC(=O)N[C@@H](CC(C)C)C(=O)O)cc1` registered a solubility (kinetic) of over 46 µg/mL.
Consider `NC(=O)C(=O)NCCCN1CCOCC1`, for which the solubility (kinetic) was over 32.3 µg/mL.
The figure for `CCn1c(=O)n(CC)c2cc([N+](=O)[O-])c(N3CCNCC3)cc21` is over 47.9 µg/mL; for `CC(C)Cc1ccc(S(=O)(=O)NCC2CCCO2)cc1` (centres undefined) it is 33.6 µg/mL (≈ 113 µM).
On to `CC1=C(C(=O)OC(C)C)C(c2ccccc2)NC(=O)N1C` (centres undefined), for which the kinetic solubility is over 43.3 µg/mL.
`O=C(COC(=O)c1ccc[nH]c1=O)NC1CCCCCCC1` gave a solubility (kinetic) of 41.5 µg/mL (≈ 135 µM).
The same measure for `COc1ccc(C(=O)Nc2nc3ccccc3s2)c(OC)c1`: 1 µg/mL (≈ 3.18 µM); for `Cc1ccccc1NCN1C(=O)C2CCC(C)(C1=O)C2(C)C` (centres undefined): 30.6 µg/mL (≈ 102 µM).
Take `O=C(COc1ccccc1F)NCCc1ccc2c(c1)OCCO2`: the solubility (kinetic) was over 49.7 µg/mL.
As for `O=C(/C(=C(\O)c1ccccc1)c1ncc[nH]1)c1ccccc1`, the solubility (kinetic) was 9.5 µg/mL (≈ 32.7 µM).
Compound `Cc1cc(C)cc(NC(=O)Nc2cnccn2)c1` gave a solubility (kinetic) of 2.4 µg/mL (≈ 9.91 µM).
Compound `CCC(=O)c1ccc(OC(C)C(=O)NC2(C#N)CCCCC2)cc1` (centres undefined) gave a kinetic solubility of 25 µg/mL (≈ 76.1 µM).
Compound `Cc1ccc(NCCC(=O)c2ccccc2)cc1Cl` returned a solubility (kinetic) of under 0.6 µg/mL.
The compound `CN1CCN(c2ccc([N+](=O)[O-])cc2NC(=O)c2ccco2)CC1` showed a solubility (kinetic) of 20.8 µg/mL (≈ 63 µM).
As for `CC(C)(C)NC(=O)CSc1ncccc1-c1nc2ccccc2[nH]1`, the kinetic solubility was 3.3 µg/mL (≈ 9.69 µM).
With `COC(=O)c1ccccc1NC(=O)c1ccc[nH+]c1.[Cl-]`, the kinetic solubility is over 43.9 µg/mL.
Compound `C=CCN1C(=O)N(CC=C)c2cccc3cccc1c23` displayed a solubility (kinetic) of 0.4 µg/mL (≈ 1.51 µM).
The figure for `O=C(CSc1nccc(=O)[nH]1)NC1CCCCCCC1` is over 44.3 µg/mL; for `Cc1ccc(NC(=O)C2=CN3CCS(=O)(=O)N=C3C=C2)cc1` it is 12.7 µg/mL (≈ 40 µM); for `C=CCn1c(SCC(N)=O)nnc1-c1cnccn1` it is over 41.4 µg/mL.
For `O=C(Nc1nc2ccccc2[nH]1)c1cccc(Cl)c1`, the kinetic solubility is under 0.2 µg/mL.
Regarding `Cc1cccc(C(=O)NCCC(=O)NCc2ccccc2F)c1`, the kinetic solubility is over 47.2 µg/mL.
In turn, `Clc1ccc(CN2CCN(c3ncccn3)CC2)cc1` registered a kinetic solubility of 29.6 µg/mL (≈ 102 µM).
`COc1ccccc1C(=O)COC(=O)CN1C(=O)c2ccccc2C1=O`: the solubility (kinetic) worked out at 6.4 µg/mL (≈ 18.1 µM).
The compound `CC(C)C(NC(=O)c1ccc(F)cc1)C(=O)NCC1CCCO1` (centres undefined) registered a solubility (kinetic) of over 48.4 µg/mL.
The figure for `CCN(CC)C(=O)c1ccc(COc2ccccc2Cl)o1` is 45.5 µg/mL (≈ 148 µM); for `O=C(Nc1ccc(Br)cc1)c1cc(-c2ccncc2)nc2ccccc12` it is 5.8 µg/mL (≈ 14.3 µM); for `CC(C)N1CCNCC1.Cl` it is 23.1 µg/mL.
The compound `O=C(COC(=O)c1ccc(Cl)nc1)Nc1ccc2c(c1)OCCO2` returned a kinetic solubility of 4.8 µg/mL (≈ 13.8 µM).
Take `Cc1cccc(-c2nnc(SCC(=O)NC3CC3)n2C)c1`: the kinetic solubility was over 45.4 µg/mL.
The figure for `O=C(NC1CSCC1OC(=O)c1ccccc1)c1ccccc1` (centres undefined) is 26.1 µg/mL (≈ 79.7 µM).
With `O=C(COC(=O)C1CCCO1)Nc1nc(-c2ccc(F)cc2)cs1` (centres undefined), the solubility (kinetic) was over 52.6 µg/mL.
`CCc1nnc(SCC(=O)NC2CC2)n1CC`: the kinetic solubility is over 38.2 µg/mL.
Regarding `CCc1c(C)nc(N2CCN(c3ccc(Cl)cc3)CC2)[nH]c1=O`, the kinetic solubility was found to be 1.1 µg/mL (≈ 3.3 µM).
As for `COc1ccccc1N1CCN(CC(=O)Nc2nccs2)CC1`, the kinetic solubility was over 49.9 µg/mL.
With `Cc1csc(NC(=O)c2ccc(Cl)nc2)n1`, the kinetic solubility was over 38.1 µg/mL.
Consider `COc1ccc(OC)c2c(C)cc(N3CCCCCC3)nc12`, for which the solubility (kinetic) stood at 6.3 µg/mL (≈ 21 µM).
As for `CCOC(=O)C1CCN(C/C=C/c2ccccc2[N+](=O)[O-])CC1`, the kinetic solubility stood at 39.3 µg/mL (≈ 123 µM).
For `Nc1nc(F)cc(N2CCCCCC2)n1`, the solubility (kinetic) was over 31.5 µg/mL.
`COc1cccc(CC(=O)Nc2ccc(-c3csc(C)n3)cc2)c1` showed a solubility (kinetic) of 2.5 µg/mL (≈ 7.39 µM).
In turn, `CCCc1nc2sc3c(=O)[nH]cnc3c2c2c1CCCC2` had a kinetic solubility of 0.4 µg/mL (≈ 1.34 µM).
Compound `COc1ccc(N2Cc3ccc(OC)c(OC)c3C2=O)cc1` returned a kinetic solubility of over 44.9 µg/mL.
Compound `O=C(Nc1nc2ccccc2n1CCN1CCOCC1)c1ccccc1` registered a solubility (kinetic) of 51.4 µg/mL (≈ 147 µM).
As for `Cc1ccc(C)c(NC(=S)NC23CN4CN(CN(C4)C2)C3)c1`, the kinetic solubility is over 47.6 µg/mL.
The figure for `Cc1cccc(-c2nnc(SCC(=O)Nc3cc(C)on3)n2C)c1` is over 51.5 µg/mL; for `CCOc1ccc(S(=O)(=O)N(C)CC(=O)NC2CC2)cc1` it is over 46.9 µg/mL; for `Cn1c(=O)n(C)c2cc(NC(=O)COc3ccc(F)cc3F)ccc21` it is 47.2 µg/mL (≈ 136 µM).
`CCOc1ccccc1OCCC(=O)OCC(=O)c1ccc[nH]1`: the kinetic solubility was determined as 21.8 µg/mL (≈ 68.7 µM).
`CCC(=NCCc1ccccc1)c1c(O)n(C)c(=O)n(C)c1=O` came in with a kinetic solubility of 42.3 µg/mL (≈ 134 µM).
`Cc1cccc(NC(=O)CCN2CCN(C)CC2)c1.Cl` returned a solubility (kinetic) of over 44.7 µg/mL.
The compound `COc1cc(OC)c(C(=O)NCC2CCCO2)cc1OC` (centres undefined) showed a kinetic solubility of over 44.3 µg/mL.
Regarding `O=C(NCc1ccc2c(c1)OCO2)C1CCC(=O)N1C1CCCC1` (centres undefined), the kinetic solubility was over 49.6 µg/mL.
The same measure for `COc1cc(C(=O)O)c([N+](=O)[O-])c(OC)c1OC`: over 38.6 µg/mL.
The compound `O=C(NCc1ccncc1)C(=O)Nc1ccc2c(c1)OCO2` gave a solubility (kinetic) of 9.5 µg/mL (≈ 31.7 µM).
Compound `CCC(=O)Nc1ccc(S(=O)(=O)Nc2nccs2)cc1` displayed a kinetic solubility of 45.5 µg/mL (≈ 146 µM).
Take `CNCC(=O)Nc1ccc(OC(F)(F)F)cc1.Cl`: the solubility (kinetic) is 41.4 µg/mL.
`COc1ccc(-n2c(C)ccc2C)c([N+](=O)[O-])c1` returned a solubility (kinetic) of 22.7 µg/mL (≈ 92.2 µM).
Compound `O=C(c1sccc1Cl)N1CCN(Cc2ccc3c(c2)OCO3)CC1` had a kinetic solubility of over 54.7 µg/mL.
`Cc1[nH]c2ccccc2c1C(=O)C(=O)NCCOc1ccccc1` came in with a kinetic solubility of 2.2 µg/mL (≈ 6.82 µM).
Compound `COc1cccc(C(c2c(N)n(C)c(=O)n(C)c2=O)C(C)[N+](=O)[O-])c1` (centres undefined) gave a kinetic solubility of over 52.3 µg/mL.
With `CC(=O)c1ccc(N=C2SCCCN2C(=O)C2CCCC2)cc1`, the solubility (kinetic) worked out at 47.5 µg/mL (≈ 144 µM).
With `O=[N+]([O-])c1ccc(N2CCN(c3ccccc3)CC2)nc1`, the kinetic solubility was 0.6 µg/mL (≈ 2.11 µM).

In general, kinetic solubility refers to solubility judged after dilution from a stock solution rather than from solid.

These data come from PubChem BioAssay AID1996.
